Experimental findings from patent EP0284725A2, “Indoxyl-beta-d-glucuronide and method for making” (QUEEN'S UNIVERSITY AT KINGSTON, priority 1987, dated 1988) are described below.

In one assay the test system is Escherichia coli. Nature of the assay: Enzyme reaction of bacteria on m-TECB based agar media in microtiter plates, read visually by colour. It is filed as cell-based. The source says: (§1) Enzyme activity was detected on the m-TEC medium of Dufour et al. (Dufour, A.P., E.R. Strickland and V.J. Cabelli. 1981. Membrane filter method for enumerating Eseherichia coli. Appl. Envion. Microbiol. 41: 1152-1158) prepared with the following modifications: bromocresol purple, bromophenol red and lactose were omitted; the modified m-TEC medium contained (g/1 proteose peptone No. 3, 5.0g; yeast extract 3.0g; glycerol 10.0g; NaCl 7.5g; K2HPO4 3.3g; KH2PO4 1.0g; sodium lauryl sulfate 0.2g; sodium deoxycholate 0.10g and agar 15.0g. The medium was autoclaved for 15 minutes at 121°C. The following chemicals, purchased from the Sigma Chemical Company, St.Louis. Mo., were added separately to the modified m-TEC medium after autoclaving and cooling to 50°C - 60°C: para-nitrophenyl-β- ? -glucuronide 400 mg/l; indoxyl-β- ? -glucoside 250 mg/l. Indoxyl-β- ? -glucuronide, prepared as described in Example 8, was added at 350-400 mg/l. The four agar media used in this study will be referred to as follows: modified m-TEC as m-TECB medium; the formulations of indoxyl-β-D -glucuronide as IGA, para-nitrophenyl-β-D-glucuronide as PNGA, and indoxyl-β-D -glucoside (indican) as IA media.
(§2) In this experiment, four organisms were tested for β- D -glucuronidase and β- D -glucosidase activity: American Type Culture Collection (ATCC) strains Escherichia Coli 35218 and Klebsiella pneumonia 13883; environmental isolates that have been characterized in our laboratory, Escherichia coli 83-17350 and Klebsiella pneumonia PHL.
(§3) A series of m-TECB agar basal media microtiter plates were prepared, using the m-TECB base media described in Example 9, and indoxyl-β- D -glucuronide, p-nitrophenyl-β- D -glucuronide or indoxyl-β-D-glucoside was added to respective plates. Specific bacteria from controlled sources, described above, were applied to the plates and incubated at 45°C for 16 2 hours.

Another assay concerns Klebsiella pneumonia. Described as above. The conditions noted are these: K. pneumonia. It is filed as cell-based.
Description: as §1, §2, §3

Where a name gives a salt, the structure may show the parent alone.

As for `OC[C@H]1O[C@@H](Oc2c[nH]c3ccccc23)[C@H](O)[C@@H](O)[C@@H]1O` [indican, indoxyl-β-D -glucoside], the colour / reactivity entry is listed as “no reactivity” in the assay with Escherichia coli (Environmental and ATCC strains of E.coli); “blue colour” with Klebsiella pneumonia. Consider `O=C(O)[C@H]1O[C@@H](Oc2c[nH]c3ccccc23)[C@H](O)[C@@H](O)[C@@H]1O` [indoxyl-β- D -glucuronide, Indoxyl-β-D -Glucuronide Sodium Salt], for which, in the assay on Escherichia coli, the “hydrolysis by the glucuronidase activity of E. coli” value is “readily and specifically hydrolysed”.
